Assay results taken from patent US20120277211A1, “METHODS AND COMPOSITIONS FOR THE TREATMENT OF PSYCHOTIC DISORDERS THROUGH THE IDENTIFICATION OF THE SULT4A1-1 HAPLOTYPE” (priority 2009, published 2012).
Where two headings read alike, the source gives them in different places. Marks after values point to notes of the source that are not given here.

What was measured:
schizophrenia patients [1] = details: Phase II; for Responders: decrease PANSS ≧20%, LOCF
[2] = tested on: Caucasian schizophrenia patients; assay: CATIE: hospitalization due to exacerbation of psychosis by SULT4A1-1 status; assay type: in vivo, human
Excerpt: To assess if SULT4A1-1 status impacts the risk of hospitalization in Caucasians, the inventors assigned SULT4A1-1 status to each CATIE subject and evaluated hospitalization events due to exacerbation of psychosis. For this analysis, the inventors assigned a dichotomous value (positive or negative) for hospitalization status to subjects in each phase of the trial based on only the first hospitalization event for a given patient in that phase. Patients participating in Phases 1, 2, and/or 3 were included in the totals for the appropriate drug.
A Kaplan-Meier survival analysis was performed to determine whether there was a difference between the survival (hospitalization) rates for the SULT4A1-1 negative and SULT4A1-1 positive patient populations treated with each of the atypical antipsychotics. Survival plots model the fraction of the population that survived (i.e., no hospitalization event) as a function of time.

[3] = tested on: Caucasian schizophrenia patients; assay: CATIE: time to discontinuation for all causes by SULT4A1-1 status; assay type: in vivo, human; details: SULT4A1-1 negative
Excerpt: The primary endpoint for the CATIE study was time to discontinuation for all causes (Lieberman et al., 2005). Thus the inventors evaluated the effect of SULT41-1 status on this important parameter.

schizophrenia patients [4] = details: published CATIE results (Lieberman et al. 2005); cited from earlier work
[5] = tested on: African American schizophrenia patients; assay: CATIE: change in total PANSS (LOCF) by SULT4A1-1 haplotype status, African Americans; assay type: in vivo, human; details: for Number of individuals with change in total PANSS ≦−20% (responders) / Number of individuals with change in total PANSS ≧−20% (non-responders): LOCF
Procedure: The design of the CATIE study has been described in detail by others (Lieberman et al., 2005; Stroup et al., 2003). […] A total of 738 subjects consented to provide DNA for genetic study. […] Retrospective genetic analyses, judged to be exempt from human studies requirements by an IRB, were conducted in the current study. All tested patients were studied using well established clinical endpoints comparing baseline, intermediate, and last observation carried forward (LOCF) for the PANSS scores using CATIE data. […] To remove time on drug as a variable for the CATIE trial, analysis was limited to only those patients who were randomized to a different drug following the initial washout period (drug switchers).

schizophrenia patients [6] = assay: CATIE: months of successful treatment measured by the CGI scale (TMSUCC1); assay type: in vivo, human
Excerpt: The CATIE clinical data set included Clinical Global Impression (CGI) Scale, an observer-provided assessment of the psychiatric health of the patient (Stroup et al., 2003; Guy 1976). Patients are rated with the CGI Scale from 1 to 7, with higher scores indicating greater severity of illness. The CATIE study provided a response variable that measured the time (in months) of successful treatment as measured by the CGI scale (“TMSUCC1” in the CATIE data).

Compound: Cc1cc2c(s1)Nc1ccccc1N=C2N1CCN(C)CC1 [Olanzapine]
- Nonresponders (schizophrenia patients [1]; SULT4A1-1 Negative): 14
- Responders (schizophrenia patients [1]; SULT4A1-1 Negative): 3
- % Responders (schizophrenia patients [1]; SULT4A1-1 Positive): 42.9%
- Nonresponders (schizophrenia patients [1]; SULT4A1-1 Positive): 4
- Responders (schizophrenia patients [1]; SULT4A1-1 Positive): 3
- HOSP, number of patients hospitalized ([2]; SULT4A1-1 negative): 22
- HOSP, number of patients hospitalized ([2]; SULT4A1-1 positive): 1
- HOSP, rate of hospitalization ([2]; SULT4A1-1 positive): 2.6%
- HOSP, rate of hospitalization ([2]; Unsegmented): 14.2%
- HOSP, number of patients hospitalized ([2]; Unsegmented, Phases 1, 2 and/or 3, first event): 23
- Time to discontinuation, mean [3]: 10.0** Months
- Incidence of clinically significant weight gain compared to other drugs (schizophrenia patients [4]): higher incidence of clinically significant weight gain
- Responders ([5]; SULT4A1-1 negative): 33.3%
- Number of individuals with change in total PANSS ≦−20% (responders) ([5]; SULT4A1-1 negative): 15
- Number of individuals with change in total PANSS ≧−20% (non-responders) ([5]; SULT4A1-1 negative): 30
- Responders ([5]; SULT4A1-1 positive): 25%
- Number of individuals with change in total PANSS ≦−20% (responders) ([5]; SULT4A1-1 positive): 1
- Number of individuals with change in total PANSS ≧−20% (non-responders) ([5]; SULT4A1-1 positive): 3
- Length of successful treatment (CGI Months), Mean (schizophrenia patients [6]; SULT4A1-1 negative): 5.44 Months
- Length of successful treatment (CGI Months), Mean (schizophrenia patients [6]; SULT4A1-1 positive): 8.33^d Months
- Length of successful treatment (CGI Months), Mean (schizophrenia patients [6]; Unsegmented): 6.10 Months
